Values belong to the compound of their own block, whether it stands above or below them.
How the values were obtained:
[1] = plasma concentration in rats after intravenous administration; assay type: in vivo; conditions: rat; for concentration at 5 min / concentration at 0.25 h / concentration at 0.5 h / concentration at 1 h: plasma, iv; for concentration at 5 min / concentration at 0.25 h / concentration at 0.5 h / concentration at 1 h / Concentration in plasma: i.v. 1 mg/kg; for concentration at 0.25 h: 15 min; for concentration at 0.5 h: 30 min; for concentration at 1 h: 60 min
[2] = plasma concentration in rats after oral administration; assay type: in vivo; conditions: rat
Description: A physiological NaCl solution of the substance to be tested was submitted to high pressure liquid chromatography (HPLC) in order to determine its characteristic substance-specific retention time with the chosen test conditions.
The substance to be tested was diluted in vitro in rat plasma. This solution was also submitted to HPLC to see whether the characteristic peak of the substance once again appeared at the substance-specific retention time.
Blood samples were taken at time intervals of 15 minutes, from which plasma samples were prepared by centrifugation; those samples were also submitted to HPLC to see whether the characteristic peak of the substance appeared again at the substance-specific retention time.
After administration, blood samples were taken from the test animals at time intervals from 2 to maximally 360 minutes and the blood level of the compounds to be tested was determined by HPLC.

[3] = plasma concentration in rats after rectal administration; assay type: in vivo; conditions: plasma, rat; for concentration at 0.5 h: 30 min; for concentration at 1 h: 60 min; for concentration at 2 h: 120 min; for concentration at 3 h: 180 min
[4] = biological target: thrombin (Bos taurus, UniProt P00735); assay: biochemical
[5] = tested on: coagulation in human plasma; assay: thrombin time (TT) in human plasma
[6] = biological target: tPA (Homo sapiens, UniProt P00750); assay: inhibition of tPA, dissociation constant Ki
Chain of tPA (P00750 36-562): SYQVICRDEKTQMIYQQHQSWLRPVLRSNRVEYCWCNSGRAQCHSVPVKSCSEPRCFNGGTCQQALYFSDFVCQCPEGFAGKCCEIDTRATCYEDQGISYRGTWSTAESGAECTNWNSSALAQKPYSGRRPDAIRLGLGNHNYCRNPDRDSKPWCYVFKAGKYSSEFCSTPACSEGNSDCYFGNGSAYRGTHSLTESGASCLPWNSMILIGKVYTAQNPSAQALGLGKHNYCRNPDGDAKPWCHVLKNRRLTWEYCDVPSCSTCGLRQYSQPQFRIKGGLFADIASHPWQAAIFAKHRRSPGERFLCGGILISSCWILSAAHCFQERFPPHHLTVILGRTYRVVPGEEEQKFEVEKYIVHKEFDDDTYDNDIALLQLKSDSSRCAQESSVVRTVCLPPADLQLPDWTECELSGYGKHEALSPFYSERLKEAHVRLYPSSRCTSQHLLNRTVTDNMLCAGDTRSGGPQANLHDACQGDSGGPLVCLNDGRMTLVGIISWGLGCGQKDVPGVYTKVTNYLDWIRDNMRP

[7] = tested on: coagulation in human plasma; assay: prothrombin time (PT, Quick value) in human plasma
[8] = biological target: T1, factor XIIa (Homo sapiens, UniProt P00748); assay: inhibition of factor XIIa, dissociation constant Ki
T1 sequence (P00748 373-615 limits assumed): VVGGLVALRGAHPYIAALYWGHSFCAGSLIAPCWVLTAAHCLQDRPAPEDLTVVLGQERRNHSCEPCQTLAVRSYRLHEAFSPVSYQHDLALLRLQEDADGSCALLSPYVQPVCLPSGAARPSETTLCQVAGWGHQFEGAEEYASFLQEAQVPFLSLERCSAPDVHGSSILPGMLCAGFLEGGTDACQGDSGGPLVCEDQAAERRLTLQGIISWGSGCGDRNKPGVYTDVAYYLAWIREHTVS

[9] = biological target: plasma kallikrein (Homo sapiens, UniProt P03952); assay: inhibition of plasma kallikrein, dissociation constant Ki
Chain of plasma kallikrein (P03952 391-638 limits assumed, species assumed): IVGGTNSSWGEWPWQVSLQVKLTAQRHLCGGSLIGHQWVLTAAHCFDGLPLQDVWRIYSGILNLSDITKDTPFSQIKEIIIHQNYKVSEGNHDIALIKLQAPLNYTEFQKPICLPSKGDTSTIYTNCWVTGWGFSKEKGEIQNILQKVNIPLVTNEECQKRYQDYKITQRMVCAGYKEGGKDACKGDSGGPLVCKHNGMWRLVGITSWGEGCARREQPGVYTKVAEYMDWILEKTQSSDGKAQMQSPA
Chain of plasma kallikrein (P03952 20-390 partner limits assumed, species assumed): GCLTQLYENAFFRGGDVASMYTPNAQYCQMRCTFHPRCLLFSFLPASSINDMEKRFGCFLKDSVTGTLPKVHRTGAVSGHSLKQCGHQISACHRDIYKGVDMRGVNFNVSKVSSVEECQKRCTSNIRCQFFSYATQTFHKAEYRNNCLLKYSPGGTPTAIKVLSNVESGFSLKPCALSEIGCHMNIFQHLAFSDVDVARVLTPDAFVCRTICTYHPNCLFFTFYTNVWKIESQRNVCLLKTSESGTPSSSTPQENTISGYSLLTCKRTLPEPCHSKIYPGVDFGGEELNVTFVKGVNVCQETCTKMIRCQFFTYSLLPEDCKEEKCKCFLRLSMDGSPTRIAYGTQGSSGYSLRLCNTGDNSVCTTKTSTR

[10] = biological target: glandular kallikrein (Sus scrofa, UniProt P00752); assay: inhibition of glandular kallikrein, dissociation constant Ki
Chain of glandular kallikrein (P00752 8-246): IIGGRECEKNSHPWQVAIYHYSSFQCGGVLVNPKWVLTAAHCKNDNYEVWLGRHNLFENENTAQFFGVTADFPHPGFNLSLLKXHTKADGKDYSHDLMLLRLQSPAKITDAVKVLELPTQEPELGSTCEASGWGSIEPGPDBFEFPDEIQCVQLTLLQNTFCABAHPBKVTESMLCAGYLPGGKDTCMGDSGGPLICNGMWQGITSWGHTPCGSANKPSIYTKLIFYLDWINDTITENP

[11] = tested on: coagulation in human plasma; assay: activated partial thromboplastin time (aPTT) in human plasma
[12] = in vivo; conditions: rat, intraduodenal 100 mg/kg; for Concentration in plasma: hydrochloride, 100 mg/kg
[13] = tested on: coagulation in rat plasma; assay: thrombin time in rat plasma after rectal application; assay type: in vivo
Description: (§1) After rectal administration of the compounds to be tested, the anticoagulant effect was determined in the plasma of experimental animals.

[14] = tested on: coagulation in rat plasma; assay: aPTT in rat plasma after rectal application; assay type: in vivo
Description: as §1

[15] = concentration in rat plasma in the anticoagulant study after rectal application; assay type: in vivo; conditions: for concentration at 0.5 h / concentration at 1 h / concentration at 2 h / concentration at 3 h: plasma; for concentration at 0.5 h: 30 min; for concentration at 1 h: 60 min; for concentration at 2 h: 120 min; for concentration at 3 h: 180 min; for Concentration in plasma: 0 min
[16] = biological target: plasmin (Homo sapiens, UniProt P00747); assay: inhibition of plasmin, dissociation constant Ki
Chain of plasmin (P00747 581-810 limits assumed): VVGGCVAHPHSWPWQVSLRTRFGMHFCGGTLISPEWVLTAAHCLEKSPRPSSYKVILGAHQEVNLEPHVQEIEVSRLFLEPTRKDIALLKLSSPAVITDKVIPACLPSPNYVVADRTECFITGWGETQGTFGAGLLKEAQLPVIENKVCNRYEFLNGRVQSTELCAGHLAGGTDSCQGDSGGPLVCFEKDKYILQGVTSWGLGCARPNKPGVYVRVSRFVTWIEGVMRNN
Chain of plasmin (P00747 97-580 partner limits assumed): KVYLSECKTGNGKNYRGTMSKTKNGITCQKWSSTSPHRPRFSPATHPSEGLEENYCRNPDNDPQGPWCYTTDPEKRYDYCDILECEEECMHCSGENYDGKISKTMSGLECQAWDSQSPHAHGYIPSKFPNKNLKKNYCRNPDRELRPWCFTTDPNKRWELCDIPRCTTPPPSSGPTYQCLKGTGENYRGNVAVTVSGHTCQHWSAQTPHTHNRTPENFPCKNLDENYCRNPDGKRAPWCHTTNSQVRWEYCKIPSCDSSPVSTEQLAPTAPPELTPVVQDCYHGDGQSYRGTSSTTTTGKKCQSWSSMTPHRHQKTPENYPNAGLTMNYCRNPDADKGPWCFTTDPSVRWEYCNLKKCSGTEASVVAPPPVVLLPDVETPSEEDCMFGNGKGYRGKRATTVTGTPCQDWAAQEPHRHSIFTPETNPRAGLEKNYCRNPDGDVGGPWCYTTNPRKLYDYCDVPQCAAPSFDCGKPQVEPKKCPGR

[17] = biological target: T2, trypsin (Bos taurus, UniProt P00760); assay: inhibition of trypsin, dissociation constant Ki; assay type: biochemical; parameters: thrombin and the related enzymes trypsin, plasmin, factor Xa, factor XIIa; conditions: Table 1; read-out: Ki, Trypsin
T2 sequence (P00760 24-246): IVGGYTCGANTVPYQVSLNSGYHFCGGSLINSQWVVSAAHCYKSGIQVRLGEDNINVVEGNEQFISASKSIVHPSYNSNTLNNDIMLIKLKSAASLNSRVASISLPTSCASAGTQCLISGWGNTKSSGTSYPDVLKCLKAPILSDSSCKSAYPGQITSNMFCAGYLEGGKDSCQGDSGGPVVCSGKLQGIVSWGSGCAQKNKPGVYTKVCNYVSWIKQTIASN
Description: The biological activity of the compounds of the present invention was determined in vitro as well as in vivo.

concentration at 5 min [1]: 812 ng/mL
concentration at 0.25 h [1]: 169 ng/mL
concentration at 0.5 h [1]: 40 ng/mL
concentration at 1 h [1]: 8 ng/mL
Concentration in plasma ([1]; 120 min): 0 ng/mL
Concentration in plasma ([1]; 180 min): 0 ng/mL
concentration at 0.5 h ([2]; plasma, oral 50 mg/kg, 30 min): 33 ng/mL
concentration at 1 h ([2]; plasma, oral 50 mg/kg, 60 min): 10 ng/mL
Concentration in plasma ([2]; oral 50 mg/kg, 120 min): 0 ng/mL
Concentration in plasma ([2]; oral 50 mg/kg, 180 min): 0 ng/mL
Concentration in plasma ([2]; oral 50 mg/kg, 240 min): 0 ng/mL
Concentration in plasma ([2]; oral 50 mg/kg, 300 min): 0 ng/mL
concentration at 0.5 h ([3]; rectal 100 mg/kg): 3260 ng/mL
concentration at 1 h ([3]; rectal 100 mg/kg): 2370 ng/mL
concentration at 2 h ([3]; rectal 100 mg/kg): 1800 ng/mL
concentration at 3 h ([3]; rectal 100 mg/kg): 898 ng/mL
concentration at 4 h ([3]; rectal 100 mg/kg, 240 min): 626 ng/mL
concentration at 5 h ([3]; rectal 100 mg/kg, 300 min): 592 ng/mL
concentration at 6 h ([3]; rectal 100 mg/kg, 360 min): 448 ng/mL
Ki [4]: 0.67 µM
Ki [6]: 370 µM
Ki [8]: 210 µM
Ki [9]: 30 µM
Ki [10]: > 1000 µM
Compound: CCOC(=O)N1CCN(C(=O)C(Cc2cccc(C(=N)N)c2)NS(=O)(=O)c2ccc3ccccc3c2)CC1 (racemic) [X, N-α-(2-naphthylsulfonyl)-(D,L)-3-amidinophenylalanine-4-ethoxycarbonyl piperazide, reference compound]
Concentr. to double the Thrombin time [5]: 4.1 µmol/L
Concentr. to double the Prothrombin time [7]: 45 µmol/L
Concentr. to double the aPTT [11]: 20 µmol/L

Compound: CS(=O)(=O)N1CCN(C(=O)[C@H](Cc2cccc(C(=N)N)c2)NS(=O)(=O)c2ccc3ccccc3c2)CC1.Cl [Compound 5, Nα-(2-naphthylsulfonyl)-3-amidino-(L)-phenylalanine-4methylsulfonylpiperazide hydrochloride]
concentration at 5 min [1]: 879 ng/mL
concentration at 0.25 h [1]: 367 ng/mL
concentration at 0.5 h [1]: 151 ng/mL
concentration at 1 h [1]: 50 ng/mL
elimination in words ([1]; i.v.): eliminated at comparable rate
Concentration in plasma ([1]; 120 min): 0 ng/mL
Concentration in plasma ([1]; 180 min): 0 ng/mL
resorption in words ([2]; oral): only slightly resorbed
concentration at 0.5 h ([3]; rectal 20 mg/kg): 1650 ng/mL
concentration at 1 h ([3]; rectal 20 mg/kg): 958 ng/mL
concentration at 2 h ([3]; rectal 20 mg/kg): 299 ng/mL
concentration at 3 h ([3]; rectal 20 mg/kg): 192 ng/mL
concentration at 3 h ([12]; plasma, 180 min): 297 ng/mL
concentration at 4 h ([12]; plasma, 240 min): 530 ng/mL
concentration at 5 h ([12]; plasma, 300 min): 137 ng/mL
concentration at 6 h ([12]; plasma, 360 min): 119 ng/mL
Concentration in plasma ([12]; 30 min): 8744 ng/mL
Concentration in plasma ([12]; 30 min, listed as 5*): 1576 ng/mL
Concentration in plasma ([12]; 60 min): 9314 ng/mL
Concentration in plasma ([12]; 60 min, listed as 5*): 1900 ng/mL
Concentration in plasma ([12]; 120 min): 8612 ng/mL
Concentration in plasma ([12]; 120 min, listed as 5*): 1763 ng/mL
Clotting time, Thrombin time ([13]; rectal 5 mg/kg, 0 min): 51.5 s
Clotting time, Thrombin time ([13]; rectal 5 mg/kg, 30 min): > 300 s
Clotting time, Thrombin time ([13]; rectal 5 mg/kg, 60 min): 255 s
Clotting time, Thrombin time ([13]; rectal 5 mg/kg, 120 min): 137.5 s
Clotting time, Thrombin time ([13]; rectal 5 mg/kg, 180 min): 95 s
Clotting time, Thrombin time ([13]; rectal 20 mg/kg, 0 min): 153 s
Clotting time, Thrombin time ([13]; rectal 20 mg/kg, 30 min): > 300 s
Clotting time, Thrombin time ([13]; rectal 20 mg/kg, 60 min): > 300 s
Clotting time, Thrombin time ([13]; rectal 20 mg/kg, 120 min): > 300 s
Clotting time, Thrombin time ([13]; rectal 20 mg/kg, 180 min): > 300 s
Clotting time, aPTT ([14]; rectal 5 mg/kg, 0 min): 21.2 s
Clotting time, aPTT ([14]; rectal 5 mg/kg, 30 min): 34.5 s
Clotting time, aPTT ([14]; rectal 5 mg/kg, 60 min): 30.5 s
Clotting time, aPTT ([14]; rectal 5 mg/kg, 120 min): 27.5 s
Clotting time, aPTT ([14]; rectal 5 mg/kg, 180 min): 25.3 s
Clotting time, aPTT ([14]; rectal 20 mg/kg, 0 min): 22 s
Clotting time, aPTT ([14]; rectal 20 mg/kg, 30 min): 65 s
Clotting time, aPTT ([14]; rectal 20 mg/kg, 60 min): 62.5 s
Clotting time, aPTT ([14]; rectal 20 mg/kg, 120 min): 36 s
Clotting time, aPTT ([14]; rectal 20 mg/kg, 180 min): 29.7 s
concentration at 0.5 h ([15]; rectal 5 mg/kg): 168 ng/mL
concentration at 1 h ([15]; rectal 5 mg/kg): 65 ng/mL
concentration at 2 h ([15]; rectal 5 mg/kg): 82 ng/mL
concentration at 3 h ([15]; rectal 5 mg/kg): 10 ng/mL
concentration at 0.5 h ([15]; rectal 20 mg/kg): 1570 ng/mL
concentration at 1 h ([15]; rectal 20 mg/kg): 983 ng/mL
concentration at 2 h ([15]; rectal 20 mg/kg): 380 ng/mL
concentration at 3 h ([15]; rectal 20 mg/kg): 195 ng/mL
Concentration in plasma ([15]; rectal 5 mg/kg): 0 ng/mL
Concentration in plasma ([15]; rectal 20 mg/kg): 0 ng/mL
Concentr. to double the Thrombin time [5]: 0.034 µmol/L
concentration to double the TT [5]: less than 10^-7 mol/1
Ki [6]: 190 µM
Ki [16]: 9 µM
Concentr. to double the Prothrombin time [7]: 0.39 µmol/L
concentration to double the PT [7]: ≤ 1 μmol/1
Ki [8]: 52 µM
Ki [9]: 9.2 µM
Ki [10]: > 1000 µM
Concentr. to double the aPTT [11]: 0.26 µmol/L
concentration to double the aPTT [11]: ≤ 1 μmol/1
Ki [17]: 0.067 µM

From patent publication US5607937A, “Piperazides of substituted phenylalanine derivatives as thrombin inhibitors” (priority 1993, dated 1997)
